Measured values reported in US20240269139A1, “COMPOUNDS FOR TARGETED PROTEIN DEGRADATION OF KINASES” (DANA-FARBER CANCER INSTITUTE, INC., priority 2020, published 2024).
Where two headings read alike, the source gives them in different places.

Legend:
Assay type in all cases: cell-based
[1] = biological target: protein kinases (human kinome) (Homo sapiens, UniProt O94804); settings: STK10 (O94804)
[2] = biological target: T1, protein kinases (human kinome) (Homo sapiens, UniProt Q8IVH8); settings: for logFC: MAP4K3 Q8IVH8; for logFC MAP4K3: MAP4K3 Q81VH8
T1 sequence (Q8IVH8 1-894): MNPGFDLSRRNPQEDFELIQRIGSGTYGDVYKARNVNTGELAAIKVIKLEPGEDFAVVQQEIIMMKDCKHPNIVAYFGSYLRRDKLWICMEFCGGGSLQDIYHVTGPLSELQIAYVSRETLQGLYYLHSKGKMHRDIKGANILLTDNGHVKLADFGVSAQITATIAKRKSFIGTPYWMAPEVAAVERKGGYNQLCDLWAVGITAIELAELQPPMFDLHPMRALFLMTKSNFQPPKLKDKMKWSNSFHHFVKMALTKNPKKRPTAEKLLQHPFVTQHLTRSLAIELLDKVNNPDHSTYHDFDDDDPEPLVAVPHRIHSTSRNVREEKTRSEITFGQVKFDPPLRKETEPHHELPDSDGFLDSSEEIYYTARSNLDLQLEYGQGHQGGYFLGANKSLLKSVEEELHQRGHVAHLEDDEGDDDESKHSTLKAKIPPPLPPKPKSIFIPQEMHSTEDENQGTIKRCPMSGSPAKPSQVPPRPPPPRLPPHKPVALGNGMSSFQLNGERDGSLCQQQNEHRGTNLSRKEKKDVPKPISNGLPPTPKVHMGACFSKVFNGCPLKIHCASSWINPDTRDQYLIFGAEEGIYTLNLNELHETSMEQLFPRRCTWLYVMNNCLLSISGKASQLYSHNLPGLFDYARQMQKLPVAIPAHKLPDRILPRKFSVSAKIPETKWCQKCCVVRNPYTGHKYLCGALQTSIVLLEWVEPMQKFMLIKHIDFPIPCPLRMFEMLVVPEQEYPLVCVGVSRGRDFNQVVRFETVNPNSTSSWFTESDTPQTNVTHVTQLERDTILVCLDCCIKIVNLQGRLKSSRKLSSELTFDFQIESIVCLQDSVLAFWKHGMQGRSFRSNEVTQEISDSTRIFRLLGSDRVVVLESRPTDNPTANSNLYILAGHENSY

[3] = biological target: T2, protein kinases (human kinome) (Homo sapiens, UniProt Q9UBE8)
T2 sequence (Q9UBE8 1-527): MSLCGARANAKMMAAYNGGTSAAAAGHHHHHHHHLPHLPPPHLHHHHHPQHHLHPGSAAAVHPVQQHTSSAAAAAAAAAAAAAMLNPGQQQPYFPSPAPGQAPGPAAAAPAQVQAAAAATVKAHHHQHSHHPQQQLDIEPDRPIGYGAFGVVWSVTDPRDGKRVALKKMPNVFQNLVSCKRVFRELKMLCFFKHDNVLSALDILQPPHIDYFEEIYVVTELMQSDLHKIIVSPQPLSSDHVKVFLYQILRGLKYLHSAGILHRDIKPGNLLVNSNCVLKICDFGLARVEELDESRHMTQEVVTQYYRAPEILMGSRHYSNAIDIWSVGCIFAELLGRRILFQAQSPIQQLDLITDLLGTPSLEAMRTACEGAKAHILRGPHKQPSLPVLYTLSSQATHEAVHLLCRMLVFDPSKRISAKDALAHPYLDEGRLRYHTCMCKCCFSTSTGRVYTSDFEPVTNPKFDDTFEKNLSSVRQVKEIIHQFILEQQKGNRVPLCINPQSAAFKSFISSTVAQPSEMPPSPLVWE

[4] = experiment wp103, direction down
[5] = NLK (Q9UBE8), experiment wp137, direction down

Chain of protein kinases (human kinome) (Homo sapiens, UniProt O94804) (O94804 whole entry): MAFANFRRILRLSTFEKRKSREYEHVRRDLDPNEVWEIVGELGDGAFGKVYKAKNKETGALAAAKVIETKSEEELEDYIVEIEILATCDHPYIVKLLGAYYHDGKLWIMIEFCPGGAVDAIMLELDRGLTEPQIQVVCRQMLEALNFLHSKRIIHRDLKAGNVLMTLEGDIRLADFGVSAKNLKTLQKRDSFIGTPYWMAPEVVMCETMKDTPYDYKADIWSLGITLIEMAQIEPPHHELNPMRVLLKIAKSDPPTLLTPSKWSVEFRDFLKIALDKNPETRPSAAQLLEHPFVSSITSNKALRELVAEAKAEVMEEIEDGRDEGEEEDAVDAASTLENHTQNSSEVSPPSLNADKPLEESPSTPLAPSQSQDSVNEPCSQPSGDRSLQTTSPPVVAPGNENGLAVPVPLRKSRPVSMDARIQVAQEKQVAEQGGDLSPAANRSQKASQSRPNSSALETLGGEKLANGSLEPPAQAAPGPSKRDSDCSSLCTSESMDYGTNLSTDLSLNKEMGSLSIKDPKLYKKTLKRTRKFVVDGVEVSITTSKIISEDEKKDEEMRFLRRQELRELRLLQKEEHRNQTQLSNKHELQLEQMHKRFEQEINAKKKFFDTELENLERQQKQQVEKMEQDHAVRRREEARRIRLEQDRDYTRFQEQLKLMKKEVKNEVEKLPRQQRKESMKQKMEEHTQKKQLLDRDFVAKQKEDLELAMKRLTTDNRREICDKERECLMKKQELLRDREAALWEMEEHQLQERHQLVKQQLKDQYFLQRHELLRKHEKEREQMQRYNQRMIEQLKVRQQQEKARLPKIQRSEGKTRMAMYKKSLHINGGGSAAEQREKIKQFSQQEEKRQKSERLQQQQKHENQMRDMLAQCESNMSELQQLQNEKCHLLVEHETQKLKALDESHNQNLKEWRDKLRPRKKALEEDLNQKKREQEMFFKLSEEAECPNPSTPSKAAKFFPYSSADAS

Compound: CC(C)S(=O)(=O)c1ccccc1Nc1nc(Nc2ccc(N3CCN(CCOCCOCCC(=O)NCCNc4cccc5c4CN(C4CCC(=O)NC4=O)C5=O)CC3)cc2)ncc1Cl (centres unmarked) [TL13.97]
- logFC ([1]; experiment wp137): −0.3477
- logFC ([1]; experiment wp137, direction down): −0.3477

Compound: Cc1ncsc1-c1ccc([C@H](C)NC(=O)[C@@H]2C[C@@H](O)CN2C(=O)[C@@H](NC(=O)CCOCCOCCN2CCN(c3ccc(Nc4ncc(Cl)c(Nc5ccccc5S(=O)(=O)C(C)C)n4)cc3)CC2)C(C)(C)C)cc1 [FMF.06.098.1]
- logFC ([2]; experiment wp108): −0.814
- logFC ([2]; experiment wp114): −0.4146
- logFC ([2]; experiment wp131): −0.7898
- logFC MAP4K3 ([2]; experiment wp108): −0.814
- logFC MAP4K3 ([2]; experiment wp114): −0.4146
- logFC MAP4K3 ([2]; experiment wp131): −0.7898

Compound: Nc1ncc(-c2ccc(S(=O)(=O)N(CCCNC(=O)CCOCCOCCOCCOCCOCCNc3cccc4c3C(=O)N(C3CCC(=O)NC3=O)C4=O)C3CC3)cc2)cc1-c1ccc2c(c1)CCNC2=O (centres unmarked) [WH.10417.099]
- logFC ([1]; experiment wp056): −0.4923
- logFC ([1]; experiment wp056, direction down): −0.4923
- logFC ([1]; experiment wp103): −0.4751
- logFC [1, 4]: −0.4751
- logFC ([1]; experiment wp107): −0.5661
- logFC ([1]; experiment wp107, direction down): −0.5661

Compound: CC(C)S(=O)(=O)c1ccccc1Nc1nc(Nc2ccc(N3CCN(CCOCCOCCNC(=O)CNc4cccc5c4C(=O)N(C4CCC(=O)NC4=O)C5=O)CC3)cc2)ncc1Cl (centres unmarked) [TL12.186]
- logFC ([1]; experiment wp016): −0.3819
- logFC ([1]; experiment wp016, direction down): −0.3819
- logFC ([2]; experiment wp131): −0.6275
- logFC ([2]; experiment wp137): −0.3997
- logFC MAP4K3 ([2]; experiment wp131): −0.6275
- logFC MAP4K3 ([2]; experiment wp137): −0.3997
- logFC [3, 5]: −0.5154
- logFC ([3]; NLK Q9UBE8, experiment wp137): −0.5154

Compound: Cc1ccc(C(=O)Nc2ccc(CN3CCN(CCCOCCOCCOCCNC(=O)COc4cccc5c4C(=O)N(C4CCC(=O)NC4=O)C5=O)CC3)c(C(F)(F)F)c2)cc1C#Cc1cnc2cccnn12 (centres unmarked) [SB1.G.187]
- logFC ([1]; experiment wp103): −0.3374
- logFC [1, 4]: −0.3374

Compound: CC(C)(C)c1nc(-c2cccc(NS(=O)(=O)c3c(F)cccc3F)c2F)c(-c2ccnc(NCCOCCNC(=O)CCOCCOCCNc3cccc4c3C(=O)N(C3CCC(=O)NC3=O)C4=O)n2)s1 (centres unmarked) [DD.03.106]
- logFC [3, 5]: −0.441

Compound: Cc1ccc(NC(=O)c2cccc(C(F)(F)F)c2)cc1N1Cc2cnc(Nc3ccc(N4CCN(Cc5cn(CCCCCOc6cccc7c6C(=O)N(C6CCC(=O)NC6=O)C7=O)nn5)CC4)nc3)nc2N(C)C1=O (centres unmarked) [DB0646, N-(3-(7-((6-(4-((1-(5-((2-(2,6-Dioxopiperidin-3-yl)-1,3-dioxoisoindolin-4-yl)oxy)pentyl)-1H-1,2,3-triazol-4-yl)methyl)piperazin-1-v)pyridin-3-yl)amino)-1-methyl-2-oxo-1,4-dihydropyrimido[4,5-d]pyrimidin-3(2H)-yl)-4-methylphenyl)-3-(trifluoromethyl)benzamide]
- logFC ([3]; NLK (Q9UBE8), experiment wp117, direction down): −0.501
- logFC ([3]; NLK (Q9UBE8), experiment wp160, 8 hr, direction down): −0.5569
- logFC ([3]; NLK Q9UBE8, experiment wp117): −0.501
- logFC ([3]; NLK Q9UBE8, experiment wp160, 8 hr): −0.5569

Compound: Cn1c(=O)c(-c2c(Cl)cccc2Cl)cc2cnc(Nc3ccc(OCCNC(=O)CCCCCCNC(=O)COc4cccc5c4C(=O)N(C4CCC(=O)NC4=O)C5=O)cc3)nc21 (centres unmarked) [SB1.G.192.1]
- logFC ([3]; NLK (Q9UBE8), experiment wp071, direction down): −0.5578
- logFC ([3]; NLK (Q9UBE8), experiment wp081, direction down): −0.4869
- logFC ([3]; NLK (Q9UBE8), experiment wp131, direction down): −0.5634
- logFC ([3]; NLK Q9UBE8, experiment wp071): −0.5578
- logFC ([3]; NLK Q9UBE8, experiment wp081): −0.4869
- logFC ([3]; NLK Q9UBE8, experiment wp131): −0.5634

Compound: CC(C)S(=O)(=O)c1ccccc1Nc1nc(Nc2ccc(N3CCN(CCOCCNC(=O)CNc4cccc5c4C(=O)N(C4CCC(=O)NC4=O)C5=O)CC3)cc2)ncc1Cl (centres unmarked) [SK.3.91]
- logFC ([2]; experiment wp105): −0.571
- logFC ([2]; experiment wp107): −0.8456
- logFC ([2]; experiment wp133, 4 hr): −0.6321
- logFC ([2]; experiment wp172): −0.7962
- logFC MAP4K3 ([2]; experiment wp105): −0.571
- logFC MAP4K3 ([2]; experiment wp107): −0.8456
- logFC MAP4K3 ([2]; experiment wp133, 4 hr): −0.6321
- logFC MAP4K3 ([2]; experiment wp172): −0.7962

Compound: Cc1ccc(NC(=O)c2cccc(C(F)(F)F)c2)cc1N1Cc2cnc(Nc3ccc(N4CCN(CCCCC(=O)N[C@H](C(=O)N5C[C@H](O)C[C@H]5C(=O)N[C@@H](C)c5ccc(-c6scnc6C)cc5)C(C)(C)C)CC4)nc3)nc2N(C)C1=O [DB1113]
- logFC ([2]; experiment wp168): −1.385
- logFC MAP4K3 ([2]; experiment wp168): −1.385
- logFC ([3]; NLK (Q9UBE8), experiment wp168, direction down): −0.8556
- logFC ([3]; NLK Q9UBE8, experiment wp168): −0.8556
